Measured values: ChEMBL document CHEMBL5360549, “Recent advances in the development of methyltransferase (MTase) inhibitors against (re)emerging arboviruses diseases dengue and Zika” (Eur J Med Chem, 2023)

Key:
[1] = tested on: Zika virus; assay: Antiviral activity against Zika virus infected in African green monkey Vero cells assessed as reduction in viral plaques by plaque reduction assay; type: functional, organism-based
[2] = Inhibition of Dengue virus 3 guanine-N7 methyltransferase assessed as inhibition constant; parameters: species or system dengue virus type 3
[3] = Inhibition of Dengue virus 3 nucleoside-2'O-methyltransferase assessed as inhibition constant; parameters: species or system dengue virus type 3
[4] = Inhibition of Dengue virus NS5-methyltransferase using GpppAC4 and [3H]AdoMet as substrate incubated for 30 mins by liquid scintillation counter analysis
[5] = Inhibition of Zika virus NS5-methyltransferase using GpppAC4 and [3H]AdoMet as substrate incubated for 30 mins by liquid scintillation counter analysis
[6] = tested on: Zika virus; assay: Antiviral activity against Zika virus; type: functional, organism-based
[7] = tested on: Zika virus; assay: Inhibition of Zika virus NS5-methyltransferase at 50 uM using GpppAC4 and [3H]AdoMet as substrate incubated for 30 mins by liquid scintillation counter analysis relative to control
[8] = tested on: dengue virus type 2; assay: Inhibition of Dengue virus 2 NS5-methyltransferase at 50 uM by HTRF assay relative to control
[9] = molecular target: T1, mRNA cap guanine-N(7) methyltransferase (Homo sapiens, UniProt O43148); assay: Inhibition of human RNMT at 50 uM using polyU as substrate incubated for 10 mins in presence of [3H] ATP and ATP by liquid scintillation counter analysis relative to control
[10] = molecular target: T1, mRNA cap guanine-N(7) methyltransferase; assay: Inhibition of human RNMT assessed as inhibition constant
[11] = molecular target: T1, mRNA cap guanine-N(7) methyltransferase; assay: Inhibition of human RNMT using GpppAC4 and [3H]AdoMet as substrate incubated for 30 mins by liquid scintillation counter analysis
[12] = tested on: dengue virus type 1; assay: Antiviral activity against Dengue virus 1 infected in asian tiger mosquito C6/36 cells assessed as reduction in virus replication by methyleneblue staining based analysis; type: functional, organism-based
[13] = tested on: dengue virus type 2; assay: Antiviral activity against Dengue virus 2 infected in asian tiger mosquito C6/36 cells assessed as reduction in virus replication by methyleneblue staining based analysis; type: functional, organism-based
[14] = tested on: dengue virus type 4; assay: Antiviral activity against Dengue virus 4 infected in asian tiger mosquito C6/36 cells assessed as reduction in virus replication by methyleneblue staining based analysis; type: functional, organism-based
[15] = Cytotoxicity against hamster BHK-21 cells assessed as reduction in cell growth measured after 24 hrs by MTT assay; type: toxicity, cell-based, Mesocricetus auratus
[16] = Cytotoxicity against human A549 cells assessed as reduction in cell growth measured after 24 hrs by MTT assay; type: toxicity, cell-based
[17] = Cytotoxicity against human Huh-7 cells assessed as reduction in cell growth measured after 24 hrs by MTT assay; type: toxicity, cell-based
[18] = Cytotoxicity against HEK293T cells assessed as reduction in cell growth measured after 24 hrs by MTT assay; type: toxicity, cell-based, HEK-293T; conditions: human
[19] = Binding affinity to Zika virus NS5-methyltransferase assessed as dissociation constant by isothermal titration microcalorimetry method

T1 sequence (O43148 whole entry): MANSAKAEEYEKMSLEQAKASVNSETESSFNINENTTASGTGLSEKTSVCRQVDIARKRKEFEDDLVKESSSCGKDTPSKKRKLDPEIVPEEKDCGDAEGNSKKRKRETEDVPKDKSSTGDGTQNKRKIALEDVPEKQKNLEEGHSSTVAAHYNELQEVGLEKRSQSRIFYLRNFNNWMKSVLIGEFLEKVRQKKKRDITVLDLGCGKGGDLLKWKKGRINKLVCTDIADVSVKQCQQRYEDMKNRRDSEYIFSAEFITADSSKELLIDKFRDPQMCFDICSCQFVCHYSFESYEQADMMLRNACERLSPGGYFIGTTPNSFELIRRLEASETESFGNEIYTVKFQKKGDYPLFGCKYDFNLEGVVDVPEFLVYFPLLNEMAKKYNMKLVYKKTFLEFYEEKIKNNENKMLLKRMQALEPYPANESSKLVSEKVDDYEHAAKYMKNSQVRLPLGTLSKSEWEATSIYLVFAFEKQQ

Which EC50 [1] does the source give for `Cc1ccnc(NS(=O)(=O)c2ccc(NC(=O)c3ccc(S(=O)(=O)N4CCc5ccccc5C4)cc3)cc2)n1` here?
The EC50 was 17600 nM.

Which results are given for `N[C@H](CCSC[C@H]1O[C@@H](n2cnc3c(NCc4cccc(I)c4)ncnc32)[C@H](O)[C@@H]1O)C(=O)O`?
Ki [2]: 770 nM; Ki [3]: 150 nM

Which Ki [2] does the source give for `N[C@H](CCSC[C@H]1O[C@@H](n2cnc3c(Nc4ccccc4)ncnc32)[C@H](O)[C@@H]1O)C(=O)O` here?
Its Ki is 770 nM.

And the Ki [3]?
The Ki was 150 nM.

With `N[C@H](CCSC[C@H]1O[C@@H](n2cnc3c(NC4CC4)ncnc32)[C@H](O)[C@@H]1O)C(=O)O` as the compound, how does the Ki [2] read?
Its Ki is 770 nM.

What about the Ki [3] of the same compound?
Its Ki is 150 nM.

With `N[C@H](CCSC[C@H]1O[C@@H](n2cnc3c(NCc4ccccc4)ncnc32)[C@H](O)[C@@H]1O)C(=O)O` as the compound, how does the Ki [2] read?
The Ki was 770 nM.

What about the Ki [3] of the same compound?
The Ki was 150 nM.

Which results are given for `CCn1c2ccccc2c2cc(NC(=O)Nc3ccc([N+](=O)[O-])cc3C)ccc21`?
IC50 [4]: 38000 nM; IC50 [5]: 35000 nM; EC50 [6]: > 3990 nM; inhibition [7]: 30%

Which inhibition [8] does the source give for `Cc1cc(/C=C/c2ccc3cc(N(C)C)ccc3[n+]2C)c(C)n1-c1ccccc1` here?
Its inhibition is 97.8%.

And the inhibition [9]?
The inhibition was 98.6%.

With `Nc1ncnc2c1ncn2[C@@H]1O[C@H](CSCC[C@H](N)C(=O)O)[C@@H](O)[C@H]1O` [S-ADENOSYLHOMOCYSTEINE] as the compound, how does the Ki [2] read?
The Ki was 3190 nM.

And the Ki [3]?
Its Ki is 570 nM.

What about the Ki [10] of the same compound?
The Ki was > 50000 nM.

Which Ki [2] does the source give for `CNc1ncnc2c1ncn2[C@@H]1O[C@H](CSCC[C@@H](N)C(=O)O)[C@@H](O)[C@H]1O` here?
The Ki was 770 nM.

And the Ki [3]?
Its Ki is 150 nM.

Which EC50 [1] does the source give for `Cc1ccc2c(c1)c(=O)c(C(=O)c1ccccc1)cn2CC(=O)Nc1ccccc1C` here?
The EC50 was 17500 nM.

With `COCCCNC(=O)c1ccc(Cn2c(=O)c3ccccc3n(CC(=O)NCCc3ccc(OC)c(OC)c3)c2=O)cc1` as the compound, how does the EC50 [1] read?
The EC50 was 12500 nM.

With `CCCCCCCCCCCCCCCC[N+](C)(C)CCN(Cc1ccc(OC)cc1)c1ncccn1` as the compound, how does the inhibition [8] read?
Its inhibition is 98.6%.

What about the inhibition [9] of the same compound?
Its inhibition is 96%.

With `N[C@H](CCSC[C@H]1O[C@@H](n2cnc3c(NCCc4ccccc4)ncnc32)[C@H](O)[C@@H]1O)C(=O)O` as the compound, how does the Ki [2] read?
Its Ki is 770 nM.

What about the Ki [3] of the same compound?
The Ki was 150 nM.

Which results are given for `Cc1ccccc1CNc1ncnc2c1ncn2[C@@H]1O[C@H](CSCC[C@@H](N)C(=O)O)[C@@H](O)[C@H]1O`?
Ki [2]: 770 nM; Ki [3]: 150 nM

Which results are given for `Nc1ncnc2c1ncn2[C@@H]1O[C@H](C[C@@H](N)CC[C@H](N)C(=O)O)[C@@H](O)[C@H]1O` [SINEFUNGIN]?
IC50 [4]: 1180 nM; IC50 [11]: 5300 nM

Which results are given for `N[C@H](CCSC[C@H]1O[C@@H](n2cnc3c(NCc4cccc(Cl)c4)ncnc32)[C@H](O)[C@@H]1O)C(=O)O`?
Ki [2]: 820 nM; Ki [3]: 170 nM

Which results are given for `CCC(/C(C)=C/c1cc(OC)c(OC)cc1OC)c1cc(OC)c(OC)cc1OC` (stereo unspecified)?
EC50 [12]: 4270 nM; EC50 [13]: 4500 nM; EC50 [14]: 4540 nM; CC50 at 24 h [15]: > 80000 nM; CC50 at 24 h [16]: > 80000 nM; CC50 at 24 h [17]: > 80000 nM; CC50 at 24 h [18]: > 80000 nM

What does the source list for `Cc1cccc(CNc2ncnc3c2ncn3[C@@H]2O[C@H](CSCC[C@@H](N)C(=O)O)[C@@H](O)[C@H]2O)c1`?
Ki [2]: 770 nM; Ki [3]: 150 nM

Which IC50 [5] does the source give for `COc1ccc(NC(=O)Nc2ccc3c(c2)c2ccccc2n3Cc2ccccc2)c(OC)c1` here?
Its IC50 is 23000 nM.

What about the inhibition [7] of the same compound?
The inhibition was 30%.

For `C[S+](CC[C@H](N)C(=O)[O-])C[C@H]1O[C@@H](n2cnc3c(N)ncnc32)[C@H](O)[C@@H]1O` (stereo partly specified) [ADEMETIONINE], which Kd [19] is on record?
The Kd was 2580 nM.

Which Kd [19] does the source give for `Nc1ncnc2c1ncn2[C@@H]1O[C@H](CN(CCC(N)C(=O)O)Cc2ccc(F)cc2)[C@@H](O)[C@H]1O` (stereo partly specified) here?
Its Kd is 24300 nM.

Which Ki [2] does the source give for `N[C@H](CCSC[C@H]1O[C@@H](n2cnc3c(NCc4cccc(Br)c4)ncnc32)[C@H](O)[C@@H]1O)C(=O)O` here?
The Ki was 770 nM.

And the Ki [3]?
Its Ki is 150 nM.

Which Ki [2] does the source give for `N[C@H](CCSC[C@H]1O[C@@H](n2cnc3c(NCc4cccc(F)c4)ncnc32)[C@H](O)[C@@H]1O)C(=O)O` here?
Its Ki is 770 nM.

And the Ki [3]?
The Ki was 150 nM.

For `O=C1c2cccc3cccc(c23)C(=O)N1CCc1ccc(S(=O)(=O)N2CCN(c3ccccc3)CC2)cc1`, which EC50 [1] is on record?
Its EC50 is 4800 nM.

What does the source list for `O=C(Nc1ccc(I)cc1)Nc1ccc2c(c1)c1ccccc1n2Cc1ccccc1`?
IC50 [5]: 23000 nM; inhibition [7]: 30%

What does the source list for `Cc1ccc(CNc2ncnc3c2ncn3[C@@H]2O[C@H](CSCC[C@@H](N)C(=O)O)[C@@H](O)[C@H]2O)cc1`?
Ki [2]: 770 nM; Ki [3]: 150 nM

For `COc1ccc(NC(=O)Nc2ccc3c(c2)c2ccccc2n3CCc2ccccc2)c(OC)c1`, which IC50 [5] is on record?
Its IC50 is 23000 nM.

What about the inhibition [7] of the same compound?
The inhibition was 30%.
